Series [1] can be described thus: In vitro delivery of pyroglutamic acid to stratum corneum of the rat (tritiated esters on newborn rat skin, resistant to 2 h water washing). The format is in vitro ADME. On the procedure:
In vitro evidence to confirm delivery of pyroglutamic acid to stratum corneum of the rat
In an in vitro laboratory test, esters of pyroglutamic acid labelled with ^3 H on the pyroglutamic acid residue were applied as a 1% by weight solution in ethanol to newborn rat skin held in a glass cell, allowing the dermal side of the skin to be bathed in a buffered salts solution while the epidermal surface was exposed to normal atmospheric conditions. After 24 hours, samples of skin were taken and washed with continuous agitation in several charges of water at room temperature.
Interfollicular epidermis was removed from these skin pieces by "freeze scraping"-which avoids contamination of the sample by follicular tissue or material trapped within the hair follicle. The epidermis was then extracted in methanol and the soluble extract analysed by column chromatography. The amount of tritiated pyroglutamic acid present in the epidermis in a form resistant to a period of 2 hours continuous washing with water was measured. The quantity of tritiated pyroglutamic acid delivered and retained by the skin in this way is recorded in Table 1 below: […]

Series [2] in a line: In vivo delivery to human stratum corneum (tritiated esters applied to arms of volunteers, tape stripping). The note with it: 18 hours; for Pyroglutamic acid delivered, Ethanol base: 1% w/v in anhydrous ethanol; for Pyroglutamic acid delivered, Cream base: 1% w/v in oil-in-water emulsion base. From the text:
Accordingly, [^3 H] esters of pyroglutamic acid were each dissolved at 1% w/v in anhydrous ethanol or in an oil-in-water emulsion base. […] The [^3 H] pyroglutamic acid was separated from unchanged ester by chromotography on AG1X8 resin and the amount delivered to the skin expressed as nmoles per mg of stratum corneum protein.

The results in this text go back to patent publication US5045559A, “Treatment of skin disorders” (priority 1988, dated 1991).

Where two headings read alike, the source gives them in different places.

With `CCCCCCCCOC(=O)[C@@H]1CCC(=O)N1` [Pyroglutamic acid, n-octyl ester, pyroglutamic acid n-octyl ester], in series [1], the Pyroglutamic acid delivered was determined as 36 ± 7 n moles/cm^2 skin and the “delivery to the stratum corneum of pyroglutamic acid which resisted washing out with water (in words)” value is “best result”. In series [2], the “Pyroglutamic acid delivered, Ethanol base” value was found to be 4 n mol/mg protein and the “Pyroglutamic acid delivered, Cream base” value was 1 n mol/mg protein.

Take `CCCCCCCCCCCCOC(=O)[C@@H]1CCC(=O)N1` [Dodecyl, pyroglutamic acid n-dodecyl ester]: in series [2], the “Pyroglutamic acid delivered, Ethanol base” value was found to be 4 n mol/mg protein and the “Pyroglutamic acid delivered, Cream base” value is reported as 1 n mol/mg protein.

`CCOC(=O)[C@@H]1CCC(=O)N1` [Pyroglutamic acid, ethyl ester, pyroglutamic acid ethyl ester]: the Pyroglutamic acid delivered in series [1] (1% by weight in ethanol, newborn rat skin, 24 hours, resistant to 2 hours continuous washing with water) was 18 ± 5 n moles/cm^2 skin. In series [2], the “Pyroglutamic acid delivered, Ethanol base” value turned out to be 8 n mol/mg protein and the “Pyroglutamic acid delivered, Cream base” value is listed as 5 n mol/mg protein.

In turn, `CCCOC(=O)[C@@H]1CCC(=O)N1` [Pyroglutamic acid, n-propyl ester, pyroglutamic acid n-propyl ester] returned a Pyroglutamic acid delivered in series [1] of 21 ± 8 n moles/cm^2 skin.

Consider `O=C1CCC(C(=O)O)N1` (stereo not shown) [pyroglutamic acid, 2-pyrrolidone-5-carboxylic acid, reference compound], for which the figures for the “amount recovered from / reaching the stratum corneum following topical application (in words)” value in series [2] and in series [2] (listed as [^3 H] pyroglutamic acid) were “little pyroglutamic acid reached the stratum corneum if applied as the free acid” and “negligible amount”, respectively.

In series [1], `CCCCOC(=O)[C@@H]1CCC(=O)N1` [Pyroglutamic acid, n-butyl ester, pyroglutamic acid n-butyl ester] came in with a Pyroglutamic acid delivered of 17 ± 8 n moles/cm^2 skin. Besides, in series [2], the “Pyroglutamic acid delivered, Ethanol base” value is given as 6 n mol/mg protein and the “Pyroglutamic acid delivered, Cream base” value is recorded as 2 n mol/mg protein.

On to `COC(=O)[C@@H]1CCC(=O)N1` [Pyroglutamic acid, methyl ester, pyroglutamic acid methyl ester], for which the Pyroglutamic acid delivered in series [1] worked out at 17 ± 5 n moles/cm^2 skin.

Molecule `CCCCCCOC(=O)[C@@H]1CCC(=O)N1` [Pyroglutamic acid, n-hexyl ester, pyroglutamic acid n-hexyl ester] showed a Pyroglutamic acid delivered in series [1] of 32 ± 10 n moles/cm^2 skin. For the same molecule, in series [2], the “Pyroglutamic acid delivered, Ethanol base” value came out at 5 n mol/mg protein and the “Pyroglutamic acid delivered, Cream base” value came out at 2 n mol/mg protein.
